Data set [1] deals with human erythrocytes. The experiment in a line: Hemolytic activity against human erythrocytes. The settings on record: for ED50, Erythrocytes (hemolytic activity): 1 h at 37 °C. Format: cell-based. As for the experimental part: A total of 450 g of human blood (B(III) Rh+) was used to obtain erythrocytes by centrifuging three times for 5 min with phosphate-buffered saline (PBS) (pH 7.4) at 4 °C on a centrifuge LABOFUGE 400R (Heraeus, Hanau, Germany). Ice-cold PBS (pH 7.4) was used for resuspension of erythrocyte residue to a final optical density of 1.5 at 700 nm. Then, 20 µL of tested compound solutions or control (cucumarioside A0-1 [15]) were added to 180 µL of erythrocyte suspension in V-bottom 96-well plates and incubated for 1 h at 37 °C. After centrifugation (900 g, 10 min, laboratory centrifuge LMC-3000 (Biosan, Riga, Latvia)), 100 µL of supernatant was transferred into new flat plates. The values of erythrocyte lysis were measured on microplate photometer Multiskan FC (Thermo Fisher Scientific, Waltham, MA, USA) at λ = 570 nm as hemoglobin concentration in supernatant. […] All the experiments were carried out in triple repetitions, p < 0.05.

In data set [2] the test system is MCF-7 human breast cancer cells. The experiment in a line: cells. The data set is classed as cell-based.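 Further: IC50 values, including those behind the selectivity ratio, derive from formazan absorbance at 570 nm, tested in triplicate.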
The subject of data set [3] is MDA-MB-231 triple-negative breast cancer cells. The experiment in a line: cells. The settings on record: for Selectivity Index (SI), MDA-MB-231: ratio of IC50 for healthy (MCF-10A) and MDA-MB-231 cells. Format: cell-based, human.
Data set [4] concerns T-47D human breast cancer cells. The experiment in a line: cells. The settings on record: for Selectivity Index (SI), T-47D: ratio of IC50 for healthy (MCF-10A) and T-47D cells. Format: cell-based.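 On all read-outs here: cell viability read as absorbance of formazan dye at 570 nm, each experiment run in triplicate.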
Data set [5] deals with MCF-10A non-tumor mammary epithelial cell line. Nature of the data set: in vitro. The data set is classed as cell-based, human.
Where [6] appears, read: MTT assay, MCF-7, read-out: Cytotoxicity, IC50, MCF-7.
The mark [7] stands for this setting: MTT assay, MDA-MB-231, read-out: Cytotoxicity, IC50, MDA-MB-231.
The mark [8] stands for this setting: MTT assay, T-47D, read-out: Cytotoxicity, IC50, T-47D.
Setting [9] is: MTT assay, MCF-10A, read-out: Cytotoxicity, IC50, MCF-10A.

Like-named read-outs stand apart in the source and are kept apart here.

In general, IC50 refers to the concentration that gives 50% inhibition.

For the molecule `CO[C@@H]1[C@@H](O)[C@H](O[C@@H]2[C@@H](O)[C@H](O[C@H]3[C@H](O)[C@@H](O)[C@H](O[C@H]4[C@H](O[C@H]5CC[C@]6(C)C7=CCC89C(=O)O[C@@](C)([C@@H](CCC(C)C)OC(C)=O)[C@H]8[C@@H](OC(C)=O)C[C@@]9(C)[C@@H]7CC[C@H]6C5(C)C)OC[C@@H](O)[C@@H]4O)O[C@@H]3C)OC[C@H]2O)O[C@H](CO)[C@H]1O` (some centres unmarked) [A1 (5)], in data set [1], the “ED50, Erythrocytes (hemolytic activity)” value amounted to 6.17 ± 0.51 µM. In addition, the half-maximal inhibitory concentration (IC50) in data set [2], in data set [3], in data set [4] and in data set [5] was > 20 µM in each case.
Take `C=C(C)CC[C@@H](OC(C)=O)[C@]1(C)OC(=O)C23CC=C4[C@@H](CC[C@H]5C(C)(C)[C@@H](O[C@@H]6OC[C@@H](O)[C@H](O)[C@H]6O[C@@H]6O[C@H](C)[C@@H](O[C@@H]7OC[C@@H](O)[C@H](O[C@@H]8O[C@H](CO)[C@@H](O)[C@H](OC)[C@H]8O)[C@H]7O)[C@H](O)[C@H]6O)CC[C@]45C)[C@]2(C)C[C@H](OC(C)=O)[C@@H]31` (some centres unmarked) [A2 (6), cladoloside A2]: the “Hemolytic (membranolytic) activity, in words” value (from here on “Hemolytic … in words”) in data set [1] is listed as “moderate activity”. In data set [1], the “ED50, Erythrocytes (hemolytic activity)” value is 2.78 ± 0.32 µM. The IC50 in data set [2] (setting [6]), in data set [3] (setting [7]), in data set [4] (setting [8]) and in data set [5] (setting [9]) was > 20 µM throughout.
On to `C=C(C)CCC[C@]1(C)OC(=O)C23CC=C4[C@@H](CC[C@H]5C(C)(C)[C@@H](O[C@@H]6OC[C@@H](O)[C@H](O)[C@H]6O[C@@H]6O[C@H](C)[C@@H](O[C@@H]7OC[C@@H](O)[C@H](O[C@@H]8O[C@H](CO)[C@@H](O)[C@H](OC)[C@H]8O)[C@H]7O)[C@H](O)[C@H]6O)CC[C@]45C)[C@]2(C)C[C@H](OC(C)=O)[C@@H]31` (some centres unmarked) [A3 (7), cladoloside A3], for which, in data set [1], the “Hemolytic … in words” value is “low hemolytic activity”. In addition, the “ED50, Erythrocytes (hemolytic activity)” value in data set [1] is reported as 7.58 ± 0.69 µM; in data set [1] (listed as cladoloside A3 (7)), 7.58 µM. Also, the 50% inhibitory concentration (IC50) in data set [2] (setting [6]), in data set [3] (setting [7]), in data set [4] (setting [8]) and in data set [5] (setting [9]) was > 20 µM throughout.
With `CO[C@@H]1[C@@H](O)[C@H](O[C@@H]2[C@@H](O)[C@H](O[C@H]3[C@H](O)[C@@H](O)[C@H](O[C@H]4[C@H](O[C@H]5CC[C@]6(C)C7=CCC89C(=O)O[C@@](C)(CCC=C(C)C)[C@H]8C(=O)C[C@@]9(C)[C@@H]7CC[C@H]6C5(C)C)OC[C@@H](O)[C@@H]4O)O[C@@H]3C)OC[C@H]2O)O[C@H](CO)[C@H]1O` (some centres unmarked) [A4 (8), cladoloside A4], in data set [1], the “Hemolytic … in words” value is reported as “weakest effect from the series”. Further, the “ED50, Erythrocytes (hemolytic activity)” value in data set [1] amounted to 13.60 ± 0.70 µM. The half-maximal inhibitory concentration (IC50) in data set [2] (setting [6]), in data set [3] (setting [7]), in data set [4] (setting [8]) and in data set [5] (setting [9]) was > 20 µM throughout.
On to `COC1C(O)C(CO)OC(OC2C(O)COC(OC3C(C)OC(OC4C(OC5CCC6(C)C7=CCC89C(=O)OC(C)(CC=CC(C)(C)O)C8C(=O)CC9(C)C7CCC6C5(C)C)OCC(O)C4O)C(O)C3O)C2O)C1O` (centres unmarked) [A5 (9), cladoloside A5], for which the “ED50, Erythrocytes (hemolytic activity)” value in data set [1] was determined as 7.19 ± 0.53 µM; in data set [1] (listed as cladoloside A5 (9)), 7.19 µM. The IC50 in data set [2] (setting [6]), in data set [3] (setting [7]), in data set [4] (setting [8]) and in data set [5] (setting [9]) was > 20 µM in each case.
For the molecule `C=C(C)CC[C@@H](OC(C)=O)[C@]1(C)OC(=O)C23CC=C4[C@@H](CC[C@H]5C(C)(C)[C@@H](O[C@@H]6OC[C@@H](O)[C@H](O)[C@H]6O[C@@H]6O[C@H](C)[C@@H](O[C@@H]7O[C@H](CO)[C@@H](O)[C@H](O[C@@H]8O[C@H](CO)[C@@H](O)[C@H](OC)[C@H]8O)[C@H]7O)[C@H](O)[C@H]6O)CC[C@]45C)[C@]2(C)C[C@H](OC(C)=O)[C@@H]31` (some centres unmarked) [A6 (10), cladoloside A6], in data set [1], the “ED50, Erythrocytes (hemolytic activity)” value was determined as 3.43 ± 0.22 µM. The 50% inhibitory concentration (IC50) in data set [2] (setting [6]), in data set [3] (setting [7]), in data set [4] (setting [8]) and in data set [5] (setting [9]) was > 20 µM in each case.
`C=C(C)CC[C@@H](OC(C)=O)[C@]1(C)OC(=O)C23CC=C4[C@@H](CC[C@H]5C(C)(C)[C@@H](O[C@@H]6OC[C@@H](O[C@@H]7O[C@H](CO)[C@@H](O)[C@H](O[C@@H]8O[C@H](CO)[C@@H](O)[C@H](OC)[C@H]8O)[C@H]7O)[C@H](O)[C@H]6O[C@@H]6O[C@H](C)[C@@H](O[C@@H]7OC[C@@H](O)[C@H](O[C@@H]8O[C@H](CO)[C@@H](O)[C@H](OC)[C@H]8O)[C@H]7O)[C@H](O)[C@H]6O)CC[C@]45C)[C@]2(C)C[C@H](O)[C@@H]31` (some centres unmarked) [C3 (16), cladoloside C3]: the “ED50, Erythrocytes (hemolytic activity)” value stood at 12.10 ± 0.58 µM in data set [1] and 12.10 µM in data set [1] (listed as cladoloside C3 (16)). Moreover, the half-inhibitory concentration (IC50) in data set [2], in data set [3], in data set [4] and in data set [5] was > 20 µM in each case.
`CO[C@@H]1[C@@H](O)[C@H](O[C@@H]2[C@@H](O)[C@H](O[C@H]3[C@H](O)[C@@H](O)[C@H](O[C@H]4[C@H](O[C@H]5CC[C@]6(C)C7=CCC89C(=O)O[C@@](C)([C@@H](CCC(C)C)OC(C)=O)[C@H]8[C@@H](OC(C)=O)C[C@@]9(C)[C@@H]7CC[C@H]6C5(C)C)OC[C@@H](O[C@@H]5O[C@H](CO)[C@@H](O)[C@H](O)[C@H]5O)[C@@H]4O)O[C@@H]3C)OC[C@H]2O)O[C@H](CO)[C@H]1O` (some centres unmarked) [Cladoloside B1 (11), cladoloside B1]: the “ED50, Erythrocytes (hemolytic activity)” value turned out to be 0.55 ± 0.04 µM in data set [1] (listed as B1 (11)) and 0.55 µM in data set [1] (listed as cladoloside B1 (11)). Besides, the IC50 in data set [2] (setting [6]) is > 20 µM; in data set [3] (setting [7]) it was 10.1 ± 1 µM; in data set [4] (setting [8]), 13 ± 1.07 µM; in data set [5] (setting [9]), > 20 µM. The “Selectivity Index (SI), MDA-MB-231” value in data set [3] is reported as >1.98. For the same molecule, the “Selectivity Index (SI), T-47D” value in data set [4] was >1.54.
In the case of `C=C(C)CC[C@@H](OC(C)=O)[C@]1(C)OC(=O)C23CC=C4[C@@H](CC[C@H]5C(C)(C)[C@@H](O[C@@H]6OC[C@@H](O[C@@H]7O[C@H](CO)[C@@H](O)[C@H](O)[C@H]7O)[C@H](O)[C@H]6O[C@@H]6O[C@H](C)[C@@H](O[C@@H]7OC[C@@H](O)[C@H](O[C@@H]8O[C@H](CO)[C@@H](O)[C@H](OC)[C@H]8O)[C@H]7O)[C@H](O)[C@H]6O)CC[C@]45C)[C@]2(C)C[C@H](OC(C)=O)[C@@H]31` (some centres unmarked) [Cladoloside B2 (12), cladoloside B2], in data set [1], the “Hemolytic … in words” value was “high activity”. Further, the results for the “ED50, Erythrocytes (hemolytic activity)” value in data set [1] (listed as B2 (12)) and in data set [1] (listed as cladoloside B2 (12)) were 0.31 ± 0.02 µM and 0.31 µM, respectively. Also, the IC50 in data set [2] (setting [6]) amounted to 14.5 ± 0.48 µM; in data set [3] (setting [7]), 3.92 ± 0.35 µM; in data set [4] (setting [8]), 12.5 ± 0.96 µM; in data set [5] (setting [9]), 12.2 ± 1.2 µM. Besides, the “Selectivity Index (SI), MCF-7” value in data set [2] (ratio of IC50 for healthy (MCF-10A) and MCF-7 cells) was found to be 0.84. Besides, the “Selectivity Index (SI), MDA-MB-231” value in data set [3] came to 3.12. Further, the “Selectivity Index (SI), T-47D” value in data set [4] is recorded as 0.98.
As for `CO[C@@H]1[C@@H](O)[C@H](O[C@@H]2[C@@H](O)[C@H](O[C@@H]3CO[C@@H](O[C@H]4CC[C@]5(C)C6=CCC78C(=O)O[C@@](C)([C@@H](CCC(C)C)OC(C)=O)[C@H]7[C@@H](OC(C)=O)C[C@@]8(C)[C@@H]6CC[C@H]5C4(C)C)[C@H](O[C@@H]4O[C@H](C)[C@@H](O[C@@H]5OC[C@@H](O)[C@H](O[C@@H]6O[C@H](CO)[C@@H](O)[C@H](OC)[C@H]6O)[C@H]5O)[C@H](O)[C@H]4O)[C@H]3O)O[C@H](CO)[C@H]2O)O[C@H](CO)[C@H]1O` (some centres unmarked) [Cladoloside C1 (14), cladoloside C1], the “ED50, Erythrocytes (hemolytic activity)” value is given as 0.15 ± 0.02 µM in data set [1] (listed as C1 (14)) and 0.15 µM in data set [1] (listed as cladoloside C1 (14)). Further, the concentration for half-maximal inhibition (IC50) is > 20 µM in data set [2] (setting [6]), 15.3 ± 0.71 µM in data set [3] (setting [7]), > 20 µM in data set [4] (setting [8]) and > 20 µM in data set [5] (setting [9]).

(Values after article PMC12299463, “Cladolosides of Groups S and T: Triterpene Glycosides from the Sea Cucumber Cladolabes schmeltzii with Unique Sulfation; Human Breast Cancer Cytotoxicity and QSAR” (Marine Drugs, 2025).)
